From US20250171495A1, “MUTLI-TARGETED SERINE PROTEASE INHIBITORS FOR TREATMENT OF CANCER AND VIRAL INFECTION” (Washington University, priority 2023, published 2025)
Read-outs that look alike come from different tables or passages of the source.

Legend:
Assay type in all cases: biochemical
[1] = molecular target: T1, hepsin (Homo sapiens, UniProt P05981); experiment: Fluorogenic kinetic enzyme inhibitor assay, hepsin
T1 construct: purchased R&D Systems 4776-SE-010

[2] = molecular target: TMPRSS2 (Homo sapiens, UniProt O15393); experiment: Fluorogenic kinetic enzyme inhibitor assay, TMPRSS2; set-up: purchased Cusabio Technology CSB-YP023924HU
Sequence of TMPRSS2 (O15393 106-492 limits assumed): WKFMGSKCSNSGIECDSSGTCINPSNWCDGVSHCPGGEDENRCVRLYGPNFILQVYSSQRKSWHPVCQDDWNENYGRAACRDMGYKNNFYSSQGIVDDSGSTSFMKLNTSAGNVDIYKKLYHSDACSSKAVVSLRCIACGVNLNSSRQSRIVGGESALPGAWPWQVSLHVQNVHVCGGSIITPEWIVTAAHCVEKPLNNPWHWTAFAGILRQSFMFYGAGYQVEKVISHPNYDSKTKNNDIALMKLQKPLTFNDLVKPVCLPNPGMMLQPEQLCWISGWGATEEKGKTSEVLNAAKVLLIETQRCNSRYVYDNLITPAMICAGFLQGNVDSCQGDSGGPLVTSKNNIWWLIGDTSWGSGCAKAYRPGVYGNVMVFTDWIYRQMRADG

[3] = molecular target: T2, matriptase (Homo sapiens, UniProt Q9Y5Y6); experiment: Fluorogenic kinetic enzyme inhibitor assay, matriptase
T2 construct: purchased R&D Systems 3946-SEB-010
T2 sequence (Q9Y5Y6 615-855 limits assumed): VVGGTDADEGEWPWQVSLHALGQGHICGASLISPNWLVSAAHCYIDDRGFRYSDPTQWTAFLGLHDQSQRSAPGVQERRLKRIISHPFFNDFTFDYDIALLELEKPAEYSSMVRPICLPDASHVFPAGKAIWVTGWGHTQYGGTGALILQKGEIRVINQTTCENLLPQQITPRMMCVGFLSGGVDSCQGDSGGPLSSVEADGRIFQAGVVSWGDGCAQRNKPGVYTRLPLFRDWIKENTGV

T1 sequence (P05981 163-417 limits assumed): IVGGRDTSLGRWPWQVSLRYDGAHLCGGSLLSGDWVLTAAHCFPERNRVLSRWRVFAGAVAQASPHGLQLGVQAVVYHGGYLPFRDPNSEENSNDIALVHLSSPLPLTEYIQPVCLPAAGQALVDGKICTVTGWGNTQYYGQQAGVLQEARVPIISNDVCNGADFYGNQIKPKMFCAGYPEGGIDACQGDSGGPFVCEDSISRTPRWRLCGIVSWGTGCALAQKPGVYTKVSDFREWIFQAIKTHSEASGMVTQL
T1 sequence (P05981 1-162 partner limits assumed): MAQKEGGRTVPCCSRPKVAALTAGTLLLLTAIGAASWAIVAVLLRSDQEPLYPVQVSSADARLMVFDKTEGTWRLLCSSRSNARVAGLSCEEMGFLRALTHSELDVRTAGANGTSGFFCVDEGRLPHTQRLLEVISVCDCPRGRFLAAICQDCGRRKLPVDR

| SMILES | IC50 ([1]; read-out: Hepsin IC50) | IC50 ([2]; read-out: TMPRSS2 IC50) | IC50 ([3]; read-out: Matriptase IC50) | IC50 [3] | IC50 [1] | IC50 [2] |
| --- | --- | --- | --- | --- | --- | --- |
| CC(=O)N[C@@H](CO)C(=O)NCc1ccc(CC(=O)N[C@@H](CC(C)C)C(=O)N[C@@H](CCCNC(=N)N)C(=O)c2nc3ccccc3s2)cc1 [AJS3200, N-[(S)-1-[(1,3-benzothiazol-2-yl)carbonyl]-4-guanidinobutyl](S)-2-{[(p-{[(S)-2-acetylamino-3-hydroxypropionylamino]methyl}phenyl)methyl]carbonylamino}-4-methylvaleramide] | 2.81 nM | 0.376 nM | 9.52 nM | – | – | – |
| CC(=O)N[C@@H](CO)C(=O)NCc1ccc(C(=O)N[C@@H](CC(C)C)C(=O)N[C@@H](CCCNC(=N)N)C(=O)c2nc3ccccc3s2)cc1 [AJS4016] | 21.8 nM | 0.067 nM | 10.3 nM | – | – | – |
| CC(=O)N1C(C(=O)N[C@@H](CCC(=O)OC2CCCCC2)C(=O)N[C@@H](Cc2ccc(F)cc2)C(=O)N[C@@H](CCCNC(=N)N)C(=O)c2nc3ccccc3s2)CC2CCCCC21 (stereo partly drawn) [MF1064, cyclohexyl (S)-4-[(2R)-1-acetyloctahydro-2H-indol-2-ylcarbonylamino]-4-[N-(S)-2-(p-fluorophenyl)-1-[N-(S)-1-[(1,3-benzothiazol-2-yl)carbonyl]-4-guanidinobutylcarbamoyl]ethylcarbamoyl]butyrate] | 0.831 nM | 0.004 nM | – | 1.23 nM | – | – |
| CC(=O)N1c2ccccc2C[C@H]1C(=O)N[C@@H](CCC(=O)OC1CCCCC1)C(=O)N[C@@H](Cc1ccc(F)cc1)C(=O)N[C@@H](CCCNC(=N)N)C(=O)c1nc2ccccc2s1 [MF1065, cyclohexyl (S)-4-[(S)-1-acetyl-2-indolinylcarbonylamino]-4-[N-(S)-2-(p-fluorophenyl)-1-[N-(S)-1-[(1,3-benzothiazol-2-yl)carbonyl]-4-guanidinobutylcarbamoyl]ethylcarbamoyl]butyrate] | – | – | – | 3.49 nM | 1.76 nM | 0.062 nM |
| C=CCOC(=O)CC[C@H](NC(=O)[C@@H]1CC2CCCCC2N1C(C)=O)C(=O)N[C@@H](Cc1ccc(F)cc1)C(=O)N[C@@H](CCCNC(=N)N)C(=O)c1nc2ccccc2s1 (stereo partly drawn) [MF1068, allyl (S)-4-[(2S)-1-acetyloctahydro-2H-indol-2-ylcarbonylamino]-4-[N-(S)-2-(p-fluorophenyl)-1-[N-(S)-1-[(1,3-benzothiazol-2-yl)carbonyl]-4-guanidinobutylcarbamoyl]ethylcarbamoyl]butyrate] | 0.308 nM | 0.083 nM | – | 0.375 nM | – | – |
| N=C(N)NCCC[C@H](NC(=O)[C@H](Cc1ccccc1)NC(=O)[C@H](CCC(N)=O)NS(=O)(=O)c1ccccc1)C(=O)c1nc2ccccc2s1 [MF1101, N-[(S)-1-[N-(S)-1-[(1,3-benzothiazol-2-yl)carbonyl]-4-guanidinobutylcarbamoyl]-2-phenylethyl](S)-2-(phenylsulfonylamino) glutaramide] | 0.8 nM | 1.02 nM | 2.89 nM | – | – | – |
| N=C(N)NCCC[C@H](NC(=O)[C@H](Cc1ccccc1)NC(=O)[C@H](CCC(N)=O)NS(=O)(=O)C1CC1)C(=O)c1nc2ccccc2s1 [MF1104, N-[(S)-1-[N-(S)-1-[(1,3-benzothiazol-2-yl)carbonyl]-4-guanidinobutylcarbamoyl]-2-phenylethyl](S)-2-(cyclopropylsulfonylamino) glutaramide] | 1.07 nM | 0.273 nM | 5.59 nM | – | – | – |
| N=C(N)NCCC[C@H](NC(=O)[C@H](Cc1ccccc1)NC(=O)[C@H](CCC(N)=O)NS(=O)(=O)Cc1ccccc1)C(=O)c1nc2ccccc2s1 [MF1105, N-[(S)-1-[N-(S)-1-[(1,3-benzothiazol-2-yl)carbonyl]-4-guanidinobutylcarbamoyl]-2-phenylethyl](S)-2-(benzylsulfonylamino) glutaramide] | 0.31 nM | 0.07 nM | 1.48 nM | – | – | – |
| CC(=O)N[C@@H](CCC(C)C)C(=O)N[C@@H](CCC(=O)OC1CCCCC1)C(=O)N[C@@H](Cc1ccc(F)cc1)C(=O)N[C@@H](CCCNC(=N)N)C(=O)c1nc2ccccc2s1 [MF1125, cyclohexyl (S)-4-[(S)-1-acetylamino-4-methylpentylcarbonylamino]-4-[N-(S)-2-(p-fluorophenyl)-1-[N-(S)-1-[(1,3-benzothiazol-2-yl)carbonyl]-4-guanidinobutylcarbamoyl]ethylcarbamoyl]butyrate] | – | – | – | 3.05 nM | 3.5 nM | 0.085 nM |
| N=C(N)NCCC[C@H](NC(=O)[C@H](Cc1ccc(F)cc1)NC(=O)OCC1c2ccccc2-c2ccccc21)C(=O)c1nc2ccccc2s1 [MF1131, (S)-2-(p-fluorophenyl)-1-[N-(S)-1-[(1,3-benzothiazol-2-yl)carbonyl]-4-guanidinobutylcarbamoyl]ethyl (9H-fluoren-9-yl)methanecarbamate] | 1130 nM | 14 nM | 967 nM | – | – | – |
| N=C(N)NCCC[C@H](NC(=O)[C@H](Cc1ccc(F)c(F)c1)NC(=O)OCC1c2ccccc2-c2ccccc21)C(=O)c1nc2ccccc2s1 [MF1132, (S)-2-(3,4-difluorophenyl)-1-[N-(S)-1-[(1,3-benzothiazol-2-yl)carbonyl]-4-guanidinobutylcarbamoyl]ethyl (9H-fluoren-9-yl)methanecarbamate] | 231 nM | 28.6 nM | 144 nM | – | – | – |
| N=C(N)NCCC[C@H](NC(=O)[C@H](Cc1cccc(Cl)c1)NC(=O)OCC1c2ccccc2-c2ccccc21)C(=O)c1nc2ccccc2s1 [MF1134, (S)-2-(m-chlorophenyl)-1-[N-(S)-1-[(1,3-benzothiazol-2-yl)carbonyl]-4-guanidinobutylcarbamoyl] ethyl (9H-fluoren-9-yl)methanecarbamate] | 1630 nM | 6.3 nM | > 20000 nM | – | – | – |
| C=CCOC(=O)CC[C@H](NC(=O)[C@H](CCC(C)C)NC(C)=O)C(=O)N[C@@H](Cc1ccc(F)cc1)C(=O)N[C@@H](CCCNC(=N)N)C(=O)c1nc2ccccc2s1 [MF1140, allyl (S)-4-[(S)-1-acetylamino-4-methylpentylcarbonylamino]-4-[N-(S)-2-(p-fluorophenyl)-1-[N-(S)-1-[(1,3-benzothiazol-2-yl)carbonyl]-4-guanidinobutylcarbamoyl]ethylcarbamoyl]butyrate] | – | – | – | 2.89 nM | 11 nM | 0.001 nM |
| N=C(N)NCCC[C@H](NC(=O)[C@H](Cc1cccc(F)c1)NC(=O)OCC1c2ccccc2-c2ccccc21)C(=O)c1nc2ccccc2s1 [MF1141, (S)-2-(m-fluorophenyl)-1-[N-(S)-1-[(1,3-benzothiazol-2-yl)carbonyl]-4-guanidinobutylcarbamoyl] ethyl (9H-fluoren-9-yl)methanecarbamate] | 346 nM | 12.8 nM | 1140 nM | – | – | – |
| N=C(N)NCCC[C@H](NC(=O)[C@H](CC1CCCCC1)NC(=O)OCC1c2ccccc2-c2ccccc21)C(=O)c1nc2ccccc2s1 [MF1142, (S)-2-cyclohexyl-1-[N-(S)-1-[(1,3-benzothiazol-2-yl)carbonyl]-4-guanidinobutylcarbamoyl] ethyl (9H-fluoren-9-yl)methanecarbamate] | 2390 nM | 0.04 nM | 2810 nM | – | – | – |
| N=C(N)NCCC[C@H](NC(=O)[C@H](CCCCNC(=O)OCc1ccccc1Cl)NC(=O)OCC1c2ccccc2-c2ccccc21)C(=O)c1nc2ccccc2s1 [MF1151, (S)-5-{[(o-chlorophenyl)methyl] (oxycarbonylamino)}-1-[N-(S)-1-[(1,3-benzothiazol-2-yl)carbonyl]-4-guanidinobutylcarbamoyl] pentyl (9H-fluoren-9-yl)methanecarbamate] | – | 283 nM | 11.1 nM | – | – | – |
| N=C(N)NCCC[C@H](NC(=O)[C@@H](NC(=O)OCc1ccccc1)C1Cc2ccccc2C1)C(=O)c1nc2ccccc2s1 [MF2008, (S)-(2-indanyl)[N-(S)-1-[(1,3-benzothiazol-2-yl)carbonyl]-4-guanidinobutylcarbamoyl] methyl-phenylmethanecarbamate] | – | 0.303 nM | 75.3 nM | – | – | – |
| CC(C)(C)C[C@H](NC(=O)OCc1ccccc1)C(=O)N[C@@H](CCCNC(=N)N)C(=O)c1nc2ccccc2s1 [MF2009, (S)-3,3-dimethyl-1-[N-(S)-1-[(1,3-benzothiazol-2-yl)carbonyl]-4-guanidinobutylcarbamoyl] butyl-phenylmethanecarbamate] | – | 614 nM | > 20000 nM | – | – | – |
| N=C(N)NCCC[C@H](NC(=O)[C@H](Cc1ccc2ccccc2c1)NC(=O)OCC1c2ccccc2-c2ccccc21)C(=O)c1nc2ccccc2s1 [MF2012, (S)-2-(2-naphthyl)-1-[N-(S)-1-[(1,3-benzothiazol-2-yl)carbonyl]-4-guanidinobutylcarbamoyl] ethyl (9H-fluoren-9-yl)methanecarbamate] | – | 187 nM | > 20000 nM | – | – | – |
| CC(=O)N[C@H](Cc1c[nH]c2ccccc12)C(=O)N[C@@H](CC(C)C)C(=O)N[C@@H](CCCNC(=N)N)C(=O)c1nc2ccc(C(=O)O)cc2s1 [PK-1-94, 2-[(S)-2-[(S)-2-[(R)-2-acetylamino-3-(3-indolyl)propionylamino]-4-methylvalerylamino]-5-guanidinovaleryl]-1,3-benzothiazole-6-carboxylic acid] | – | 1.91 nM | – | – | – | – |
| CC(=O)N[C@H]1Cc2ccc(cc2)Oc2ccc(cc2)C[C@@H](C(=O)N[C@@H](CCCNC(=N)N)C(=O)c2nc3ccccc3s2)NC(=O)[C@H](CC(C)C)NC1=O [VD5076B, N-[(S)-1-[(1,3-benzothiazol-2-yl)carbonyl]-4-guanidinobutyl]-(8S,11S,14S)-14-acetylamino-11-isobutyl-10,13-dioxo-2-oxa-9,12-diazatricyclo[14.2.2.2^3,^6]docosa-1(18),3,5,16,19,21-hexaene-8-carboxamide] | – | 1.25 nM | – | – | – | – |
